Patent US12156862B2, “Medicaments for the treatment of vasoconstriction related diseases or disorders” (Sulfateq B.V., priority 2017, dated 2024)

How the values were obtained:
α1 adrenoceptor = assay: Phenylephrine-induced constriction of isolated porcine intrarenal arteries (myography)
Protocol: Porcine kidneys were obtained from a local slaughterhouse (Kroon Vlees, Gotenburgweg 30, 9723 TM Groningen. The Netherlands) and transported on ice in normal physiological Krebs buffer containing 120 mM NaCl, 6 mM KCl, 2.5 mM CaCl2×2H2O, 1.2 mM MgCl2×6H2O, 1.2 mM NaH2PO4×H2O, 25 mM NaHCO3 and 11.4 mM D-(+)-Glucose monohydrate (all ingredients were purchased from Merck) in ultrapure water.
The renal artery tree was dissected from the kidney, cleaned of surrounding connective tissue and cut into equally-sized ring segments (2 mm in length). In some rings, endothelium denudation was performed by gentle rubbing of the intimal surface with a paper clip. Rings were mounted in organ baths as described previously (Buikema et al., 2000). Arterial rings were washed thoroughly by replacing Krebs buffer and allowed to equilibrate for a period of 60 min under 1.4 g of resting tension before they were assessed for viability by inducing 2 subsequent constrictions with KCl (60 mM). […] After washout and stabilization, rings were treated for 30 minutes by incubation with vehicle (0.1% DMSO), SUL-121, SUL-150 or SUL-151, followed by subsequent incubation with cumulative doses of phenylephrine.
Dose-dependent constriction responses to phenylephrine (10^−8M-10^−4M) were recorded in said isolated porcine intrarenal arteries. Buffer was warmed to 37° C. and aerated with 95% O2 and 5% CO2 before use.
Vascular constriction responses are expressed as percentage of final response to KCl. Data are expressed as mean±SEM. *p<0.05.
To explore the effects of the enantiomers of (6-hydroxy-2,5,7,8-tetramethylchroman-2-yl)(piperazin-1-yl)methanone (SUL-150 and SUL-151) on constriction of isolated porcine intrarenal arteries, cumulative dose response curves to the α1 adrenoceptor agonist phenylephrine (PE) were constructed in the presence and absence of SUL-150 and SUL-151.

[1] = target: T1, human α1 adrenoceptor subtype A (Homo sapiens, UniProt P35348); assay: Phenylephrine-induced intracellular calcium (FLIPR Calcium 6) in CHO cells, α1A; type: cell-based
T1 construct: expressed in transfected cells; host or cells: CHO-K1
T1 sequence (P35348 1-466): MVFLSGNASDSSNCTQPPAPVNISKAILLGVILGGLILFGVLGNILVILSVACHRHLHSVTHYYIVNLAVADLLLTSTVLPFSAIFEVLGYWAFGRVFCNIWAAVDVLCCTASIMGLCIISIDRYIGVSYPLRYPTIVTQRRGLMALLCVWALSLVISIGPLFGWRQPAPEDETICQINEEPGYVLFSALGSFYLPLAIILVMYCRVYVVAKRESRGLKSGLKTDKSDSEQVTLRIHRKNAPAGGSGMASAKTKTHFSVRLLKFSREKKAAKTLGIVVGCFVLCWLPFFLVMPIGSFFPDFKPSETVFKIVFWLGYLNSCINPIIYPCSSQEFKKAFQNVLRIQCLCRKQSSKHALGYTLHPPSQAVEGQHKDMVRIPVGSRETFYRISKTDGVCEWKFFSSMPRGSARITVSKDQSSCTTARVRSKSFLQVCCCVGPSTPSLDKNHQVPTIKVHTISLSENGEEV
Protocol: (§1) CHO-K1 cells were stably transfected with a plasmid containing human al-AR subtypes A, B and D in separate cell lines in DMEM-F12 medium with 10% FBS, 1% penicillin-streptomycin and 200 μg/mL Geneticin (G418, Invitrogen, Carlsbad, CA).
(§2) On the next day, CHO cells were treated with either vehicle (0.1% DMSO) or SUL-121 enantiomers for 30 min at 37° C. and stimulated with a 3-fold dilution series of PE (20 μM-100 pM). [Ca^2], was measured using the fluorescent FLIPR Calcium 6 assay kit (Molecular Devices) in immortalized CHO cells stably expressing the α1 adrenoceptor.
(§3) Initially, calcium responses induced by non-cumulative concentration series of phenylephrine were investigated using fluorescent measurements in α1A adrenoceptor-overexpressing CHO cells treated with SUL-150 and SUL-151 (FIG. 4). Fluorescent measurement data was processed and analyzed in SoftMax Pro 7 and expressed as % of baseline AUC with a 3-fold multiplier using an average of first 10 measurement points as baseline.

[2] = target: T2, human α1 adrenoceptor subtype B (Homo sapiens, UniProt P35368); assay: Phenylephrine-induced intracellular calcium (FLIPR Calcium 6) in CHO cells, α1B; type: cell-based; conditions: in words
T2 construct: expressed in transfected cells; host or cells: CHO-K1
T2 sequence (P35368 1-520): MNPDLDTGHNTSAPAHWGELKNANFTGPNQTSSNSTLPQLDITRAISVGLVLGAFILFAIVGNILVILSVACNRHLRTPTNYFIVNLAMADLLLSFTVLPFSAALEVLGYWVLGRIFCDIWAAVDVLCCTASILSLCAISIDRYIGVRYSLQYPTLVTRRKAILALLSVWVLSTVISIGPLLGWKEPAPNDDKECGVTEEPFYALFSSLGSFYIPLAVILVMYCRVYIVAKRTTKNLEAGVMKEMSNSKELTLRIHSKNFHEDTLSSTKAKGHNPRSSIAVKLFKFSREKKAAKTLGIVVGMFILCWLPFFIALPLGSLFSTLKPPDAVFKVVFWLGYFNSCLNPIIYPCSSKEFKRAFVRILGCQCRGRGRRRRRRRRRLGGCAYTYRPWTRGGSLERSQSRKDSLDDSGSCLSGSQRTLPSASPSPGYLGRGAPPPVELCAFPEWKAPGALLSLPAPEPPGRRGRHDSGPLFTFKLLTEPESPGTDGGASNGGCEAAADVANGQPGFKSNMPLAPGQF
Protocol: as §1, §2, §3

[3] = target: T3, human α1 adrenoceptor subtype D (Homo sapiens, UniProt P25100); assay: Phenylephrine-induced intracellular calcium (FLIPR Calcium 6) in CHO cells, α1D; type: cell-based; conditions: in words
T3 construct: expressed in transfected cells; host or cells: CHO-K1
T3 sequence (P25100 1-572): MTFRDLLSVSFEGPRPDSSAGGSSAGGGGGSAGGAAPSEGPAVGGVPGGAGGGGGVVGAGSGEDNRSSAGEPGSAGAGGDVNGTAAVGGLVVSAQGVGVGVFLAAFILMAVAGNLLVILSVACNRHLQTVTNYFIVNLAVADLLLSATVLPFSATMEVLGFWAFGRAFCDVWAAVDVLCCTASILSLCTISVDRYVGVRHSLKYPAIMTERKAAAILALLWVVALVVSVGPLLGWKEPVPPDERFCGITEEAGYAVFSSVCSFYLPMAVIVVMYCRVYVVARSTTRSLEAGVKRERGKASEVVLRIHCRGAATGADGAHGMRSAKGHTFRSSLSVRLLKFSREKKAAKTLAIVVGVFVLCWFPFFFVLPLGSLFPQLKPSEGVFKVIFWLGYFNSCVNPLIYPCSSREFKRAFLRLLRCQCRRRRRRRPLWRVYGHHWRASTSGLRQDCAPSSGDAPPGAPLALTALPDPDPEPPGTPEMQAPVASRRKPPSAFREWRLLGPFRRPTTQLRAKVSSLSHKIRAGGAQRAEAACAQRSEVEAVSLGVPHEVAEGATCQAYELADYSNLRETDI
Protocol: as §1, §2, §3

α1A adrenoceptor = target: T4, α1A adrenoceptor (Homo sapiens, UniProt P35348); assay: Radiolabeled prazosin displacement binding assay in α1A adrenoceptor transgenic CHO cells
T4 construct: expressed in transfected cells; host or cells: CHO-K1
T4 sequence (P35348 1-466): T1 sequence (P35348 1-466)
Description: We therefore explored whether SUL-150 could directly interact with the α1 adrenoceptor as a receptor antagonist.

SMILES: Cc1c(C)c2c(c(C)c1O)CCC(C)(C(=O)N1CCNCC1)O2 (stereo not shown) [SUL-151, (6-hydroxy-2,5,7,8-tetramethylchroman-2-yl)(piperazin-1-yl)methanone]
- logEC50 of phenylephrine-induced constriction responses (α1 adrenoceptor; 10 μM test compound): −5.82 ± 0.05^
- logEC50 of phenylephrine-induced constriction responses (α1 adrenoceptor; 30 μM test compound): −5.89 ± 0.04
- logEC50 of phenylephrine-induced constriction responses (α1 adrenoceptor; 100 μM test compound): −5.77 ± 0.04^
- logEC50 of phenylephrine-induced calcium influx, α1A ([1]; 10 μM test compound): −8.09 ± 0.10
- logEC50 of phenylephrine-induced calcium influx, α1A ([1]; 30 μM test compound): −8.09 ± 0.11
- logEC50 of phenylephrine-induced calcium influx, α1A ([1]; 100 μM test compound): −7.98 ± 0.10
- effect on PE-induced calcium transients, α1 adrenoceptor subtype A ([1]; in words): did not affect calcium transients
- effect on PE-induced calcium transients, α1 adrenoceptor subtype B [2]: did not affect calcium transients
- effect on PE-induced calcium transients, α1 adrenoceptor subtype D [3]: did not affect calcium transients
- concentrations at which [7-Methoxy-3H]-prazosin is displaced (α1A adrenoceptor): higher than 10 μM
